Reference: patent US20160368879A1, “PHOTOACID GENERATOR, AND RESIN COMPOSITION FOR PHOTOLITHOGRAPHY” (SAN-APRO LTD., priority 2013, published 2016)

Experiments:
Type in all cases: physicochemical
[1] = Thermal decomposition temperature (TG/DTA, 2% weight reduction); conditions: point of 2% weight reduction; 10° C./minute from 30° C. to 500° C.; nitrogen atmosphere
Description: The synthesized photoacid generator was measured for the change in weight under a temperature increasing condition of 10° C./minute from 30° C. to 500° C. under a nitrogen atmosphere using a thermal gravimetric/differential thermal analyzer (TG/DTA 6200, available from Seiko Instruments Inc.), and a point where the weight was reduced by 2% was defined as the thermal decomposition temperature.

[2] = Solvent solubility (butyl acetate, toluene or PGMEA); conditions: for Solvent solubility PGMEA / Solvent solubility Butyl acetate / Solvent solubility Toluene: 25° C.; for solubility to a solvent (in words): summary of Tables 4 to 6
Description: In a test tube, 0.1 g of the synthesized photoacid generator was placed, and an organic solvent (butyl acetate, toluene or PGMEA) was added thereto in 0.2 g portions under a condition where the temperature was adjusted to 25° C. until the photoacid generator was completely dissolved. In this connection, in the case where the photoacid generator was not completely dissolved even when 20 g of the solvent was added, the photoacid generator was evaluated as one that was not dissolved.

[3] = Molar extinction coefficient of i-line (365 nm), UV-visible absorbance in acetonitrile; conditions: 0.25 mmol/L in acetonitrile, cell length 1 cm
Description: The synthesized photoacid generator was diluted to 0.25 mmol/L with acetonitrile, and using an ultraviolet-visible spectrophotometer (UV-2550 available from SHIMADZU CORPORATION), the absorbance in a range of 200 nm to 500 nm was measured with a cell having an optical path length (a cell length) of 1 cm. The molar extinction coefficient of i-line (365 nm) (ε365) was calculated from the following equation.
[In the equation, […] represents the absorbance at 365 nm.]

Row | Compound | Thermal decomposition temperature [1] | Solvent solubility PGMEA [2] | Solvent solubility Butyl acetate [2] | solubility to a solvent (in words) [2] | Solvent solubility Toluene [2] | Molar extinction coefficient [3]
1 | O=C1c2cccc3cccc(c23)C(=O)N1OS(=O)(=O)C(F)(F)F [A′-1, 1,8-naphthalimide trifluoromethanesulfonate, reference compound] | 225 °C | 2.4 wt % | 2 wt % | insufficient | 4 wt % | 330 L/mol/cm
2 | c1ccc(Sc2ccc([S+](c3ccccc3)c3ccccc3)cc2)cc1 [A′-2, reference compound] | 340 °C | >30 wt % | <0.5 wt % | – | <0.5 wt % | 80 L/mol/cm
3 | O=C1c2cccc3cccc(c23)C(=O)N1OS(=O)(=O)c1c(F)c(F)c(F)c(F)c1F [A′-3, 1,8-naphthalimide pentafluorobenzenesulfonate, reference compound] | 228 °C | 1.9 wt % | 1.6 wt % | insufficient | 3.2 wt % | 330 L/mol/cm
4 | CC1(C)C2CCC1(CS(=O)(=O)ON1C(=O)c3cccc4cccc(c34)C1=O)C(=O)C2 (stereo not drawn) [A′-5, 1,8-naphthalimide-(+)-10-camphorsulfonate, reference compound] | 230 °C | <0.5 wt % | <0.5 wt % | insufficient | <0.6 wt % | 330 L/mol/cm
5 | CC(C)Oc1ccc2c3c(cccc13)C(=O)N(OS(=O)(=O)C(F)(F)F)C2=O [Example A-1, 4-isopropoxy-1,8-naphthalimide trifluoromethanesulfonate] | 234 °C | 6.5 wt % | 8.5 wt % | – | 9 wt % | 16300 L/mol/cm
6 | CCCOc1ccc2c3c(cccc13)C(=O)N(OS(=O)(=O)C(F)(F)F)C2=O [Example A-2, 4-n-propoxy-1,8-naphthalimide trifluoromethanesulfonate] | 238 °C | 4 wt % | 4.5 wt % | – | 7.5 wt % | 14000 L/mol/cm
7 | O=C1c2cccc3c(OCC(F)(F)C(F)F)ccc(c23)C(=O)N1OS(=O)(=O)C(F)(F)F [Example A-3, 4-(2,2,3,3-tetrafluoro-1-propoxy)-1,8-naphthalimide trifluoromethanesulfonate] | 230 °C | 7.5 wt % | 6 wt % | – | 12 wt % | 12000 L/mol/cm
8 | O=C(Cc1ccccc1)c1ccc2c3c(cccc13)C(=O)N(OS(=O)(=O)C(F)(F)F)C2=O [Example A-4, 4-phenylacetyl-1,8-naphthalimide trifluoromethanesulfonate] | 240 °C | 4 wt % | 4.5 wt % | – | 7 wt % | 3000 L/mol/cm
9 | O=C1c2cccc3c(Oc4c(F)c(F)c(F)c(F)c4F)ccc(c23)C(=O)N1OS(=O)(=O)C(F)(F)F [Example A-5, 4-pentafluorophenoxy-1,8-naphthalimide trifluoromethanesulfonate] | 245 °C | 14 wt % | 17 wt % | – | 16 wt % | 12000 L/mol/cm
10 | O=C1c2cccc3c(Oc4cccc(C(F)(F)F)c4)ccc(c23)C(=O)N1OS(=O)(=O)C(F)(F)F [Example A-6, 4-(3-trifluoromethylphenoxy)-1,8-naphthalimide trifluoromethanesulfonate] | 239 °C | 11 wt % | 14 wt % | – | 13 wt % | 16000 L/mol/cm
11 | O=C1c2cccc3c(Sc4ccccc4)ccc(c23)C(=O)N1OS(=O)(=O)C(F)(F)F [Example A-7, 4-phenylthio-1,8-naphthalimide trifluoromethanesulfonate] | 240 °C | 5 wt % | 7 wt % | – | 7 wt % | 20000 L/mol/cm
12 | COc1cc2c3c(cccc3c1)C(=O)N(OS(=O)(=O)C(F)(F)F)C2=O [Example A-8, 3-methoxy-1,8-naphthalimide trifluoromethanesulfonate] | 243 °C | 6 wt % | 8 wt % | – | 7.5 wt % | 7500 L/mol/cm
13 | CCCCC(CC)C(=O)Oc1cc2c3c(cccc3c1)C(=O)N(OS(=O)(=O)C(F)(F)F)C2=O (stereo not drawn) [Example A-9, 3-(2-ethylhexanoyloxy)-1,8-naphthalimide trifluoromethanesulfonate] | 231 °C | >30 wt % | >30 wt % | – | >30 wt % | 1500 L/mol/cm
14 | CCCC(=O)Oc1cc2c3c(cccc3c1)C(=O)N(OS(=O)(=O)C(F)(F)F)C2=O [Example A-10, 3-butyroyloxy-1,8-naphthalimide trifluoromethanesulfonate] | 234 °C | >30 wt % | >30 wt % | – | >30 wt % | 1600 L/mol/cm
15 | O=C(Oc1cc2c3c(cccc3c1)C(=O)N(OS(=O)(=O)C(F)(F)F)C2=O)c1ccccc1 [Example A-11, 3-benzoyloxy-1,8-naphthalimide trifluoromethanesulfonate] | 241 °C | 20 wt % | 25 wt % | – | 23 wt % | 1400 L/mol/cm
16 | O=C(Oc1cc2c3c(cccc3c1)C(=O)N(OS(=O)(=O)C(F)(F)F)C2=O)c1c(F)c(F)c(F)c(F)c1F [Example A-12, 3-pentafluorobenzoyloxy-1,8-naphthalimide trifluoromethanesulfonate] | 242 °C | >30 wt % | >30 wt % | – | >30 wt % | 1300 L/mol/cm
17 | CC(C)(C)c1cc2c3c(cc(C(C)(C)C)cc3c1)C(=O)N(OS(=O)(=O)C(F)(F)F)C2=O [Example A-13, 3,6-di-tert-butyl-1,8-naphthalimide trifluoromethanesulfonate] | 245 °C | 8 wt % | 8 wt % | – | 7.5 wt % | 6500 L/mol/cm
18 | CC(C)(C)Cc1cc2c3c(cc(CC(C)(C)C)cc3c1)C(=O)N(OS(=O)(=O)C(F)(F)F)C2=O [Example A-14, 3,6-dineopentyl-1,8-naphthalimide trifluoromethanesulfonate] | 248 °C | 14 wt % | 18 wt % | – | 10 wt % | 6200 L/mol/cm
19 | O=C1c2cc(C34CC5CC(CC(C5)C3)C4)cc3cc(C45CC6CC(CC(C6)C4)C5)cc(c23)C(=O)N1OS(=O)(=O)C(F)(F)F [Example A-15, 3,6-diadamantyl-1,8-naphthalimide trifluoromethanesulfonate] | 250 °C | 7 wt % | 7.5 wt % | – | 8.5 wt % | 6000 L/mol/cm
20 | O=C1c2cccc3c(C(F)(F)C(F)(F)C(F)(F)C(F)(F)F)ccc(c23)C(=O)N1OS(=O)(=O)C(F)(F)F [Example A-16, 4-(nonafluorobutyl)-1,8-naphthalimide trifluoromethanesulfonate] | 239 °C | 22 wt % | 25 wt % | – | 28 wt % | 40 L/mol/cm
21 | O=C1c2cccc3c(C(F)(F)C(F)(F)C(F)(F)C(F)(F)C(F)(F)C(F)(F)C(F)(F)C(F)(F)F)ccc(c23)C(=O)N1OS(=O)(=O)C(F)(F)F [Example A-17, 4-(heptadecafluoro-n-octyl)-1,8-naphthalimide trifluoromethanesulfonate] | 242 °C | >30 wt % | >30 wt % | – | >30 wt % | 80 L/mol/cm
